Data set [1] deals with arterial blood pressure of normotensive Wistar rats. As to the kind of experiment: Influence on blood pressure in normotensive anesthetized rats after i.v. administration. The class given is in vivo, rat. Conditions: for Diastolic blood pressure / Systolic blood pressure: 2.0 mg/kg i.v., mean, n = 6; for effect on systolic and diastolic blood pressure (in words): i.v., normotensive anesthetized rats. Summed up: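 Normotensive rats were given thiopental (75 mg/kg) intraperitoneally as anesthesia. A heparinized saline-filled polyethylene tube was placed in the left carotid artery, and blood pressure was recorded with a PowerLab Apparatus. Compounds dissolved in ethyl alcohol 5% − kolliphor 5% − water 90% were injected intravenously at 1 mL/kg after 20 min of stabilization. Pressures were compared by two-way ANOVA with Sidak's post-hoc test.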

Data set [2] has as its target T1, human adrenergic receptor α1A (Homo sapiens, UniProt P35348).
T1 sequence (P35348 1-466): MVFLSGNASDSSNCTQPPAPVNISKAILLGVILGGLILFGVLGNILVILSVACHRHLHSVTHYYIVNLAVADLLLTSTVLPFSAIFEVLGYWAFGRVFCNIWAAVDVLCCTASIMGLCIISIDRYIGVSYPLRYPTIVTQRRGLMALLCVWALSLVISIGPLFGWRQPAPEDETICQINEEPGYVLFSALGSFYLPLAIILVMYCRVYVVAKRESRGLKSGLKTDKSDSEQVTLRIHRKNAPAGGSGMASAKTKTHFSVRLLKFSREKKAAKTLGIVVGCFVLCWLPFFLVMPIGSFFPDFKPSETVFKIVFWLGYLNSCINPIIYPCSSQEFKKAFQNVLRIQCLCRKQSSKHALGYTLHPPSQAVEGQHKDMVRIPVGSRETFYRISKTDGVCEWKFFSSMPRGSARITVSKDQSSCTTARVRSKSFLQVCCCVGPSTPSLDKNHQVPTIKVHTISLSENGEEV
As to the kind of experiment: Intrinsic activity, aequorin luminescence functional assay at α1A-AR. Conditions: for α1A-AR Profile: agonist/antagonist profile; for IC50: cells expressing aequorin and human α1A, against phenylephrine, means of three independent experiments in duplicates; for selectivity for α1A-AR over α1B-AR: from IC50 ratio; for Selectivity Ratio α1B/α1A: selectivity for α1A-AR (IC50(α1B-AR)/IC50(α1A-AR)). Format: cell-based.

The target of data set [3] is α1-adrenoceptors (α1-ARs), rat cerebral cortex. The experiment in a line: Radioligand binding assay with [3H]-prazosin, affinity for α1-ARs. Conditions: three independent experiments in duplicates, read-out: α1-adrenoceptor affinity Ki.
Data set [4] has as its target T2, human adrenergic receptor α1B (Homo sapiens, UniProt P35368).
T2 sequence (P35368 1-520): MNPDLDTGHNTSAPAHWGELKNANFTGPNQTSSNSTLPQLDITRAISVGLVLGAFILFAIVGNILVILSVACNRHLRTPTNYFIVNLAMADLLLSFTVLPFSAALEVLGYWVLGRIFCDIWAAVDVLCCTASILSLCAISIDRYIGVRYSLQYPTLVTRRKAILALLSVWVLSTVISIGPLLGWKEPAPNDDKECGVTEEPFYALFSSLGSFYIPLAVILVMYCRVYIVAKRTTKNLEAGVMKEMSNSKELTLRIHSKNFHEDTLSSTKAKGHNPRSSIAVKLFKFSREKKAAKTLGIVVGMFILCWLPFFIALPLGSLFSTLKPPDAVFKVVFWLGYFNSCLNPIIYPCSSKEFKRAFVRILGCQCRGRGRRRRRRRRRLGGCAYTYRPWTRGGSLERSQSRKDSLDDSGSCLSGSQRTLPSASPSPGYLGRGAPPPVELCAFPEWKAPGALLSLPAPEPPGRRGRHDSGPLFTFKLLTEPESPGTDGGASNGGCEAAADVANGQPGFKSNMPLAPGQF
The experiment in a line: Intrinsic activity, aequorin luminescence functional assay at α1B-AR. Conditions: for α1B-AR Profile: agonist/antagonist profile; for IC50: cells expressing aequorin and human α1B, against phenylephrine, means of three independent experiments in duplicates; for Selectivity Ratio α1A/α1B: selectivity for α1B-AR (IC50(α1A-AR)/IC50(α1B-AR)). Format: cell-based.

Data set [5] has as its target α1-adrenoceptors (α1-ARs), rat cerebral cortex. Conditions: cited from earlier work.
Setting [6] is: 0 min (initial, before administration).

Where a name gives a salt, the structure may show the parent alone. Read-outs that look alike come from different tables or passages of the source.

In general, melting point refers to the temperature, or range, at which the solid turns liquid. For orientation: IC50 means the concentration that inhibits the measured activity by half. What is called Ki is the equilibrium dissociation constant of an inhibitor or competing ligand from its target.

Molecule `CC1(C)C(=O)N(Cc2ccc(Cl)cc2Cl)C(=O)N1CC(O)CN1CCN(c2ccccc2C#N)CC1.Cl` (centres unmarked) [Compound 11, 3-(2,4-dichlorobenzyl)-1-(3-(4-(2-cyanophenyl)piperazin-1-yl)-2-hydroxypropyl)-5,5-dimethylimidazolidine-2,4-dione hydrochloride] registered a melting point of 147 to 149 °C. In data set [1] (setting [6]), the Diastolic blood pressure was determined as 91.7 and the Systolic blood pressure came to 128.5. In data set [1] (5 min), this molecule returned a Diastolic blood pressure of 84.0 and a Systolic blood pressure of 117.0. For the same molecule, in data set [1] (10 min), the Diastolic blood pressure was 80.7 and the Systolic blood pressure was 112.8. In addition, in data set [1] (20 min), the Diastolic blood pressure amounted to 79.7 and the Systolic blood pressure stood at 113.0. In data set [1] (30 min), this molecule showed a Diastolic blood pressure of 79.8 and a Systolic blood pressure of 112.5. In data set [1] (40 min), this molecule yielded a Diastolic blood pressure of 82.0 and a Systolic blood pressure of 113.8. In data set [1] (50 min), this molecule returned a Diastolic blood pressure of 82.3 and a Systolic blood pressure of 116.3. Also, in data set [1] (60 min), the Diastolic blood pressure is listed as 81.7 and the Systolic blood pressure was determined as 118.2. Further, the “effect on systolic and diastolic blood pressure (in words)” value in data set [1] is on record as “no significant changes”. Besides, in data set [2], the “α1A-AR Profile” value was “Antagonist”, the IC50 stood at 162 nM, the “selectivity for α1A-AR over α1B-AR” value is ~ 2 fold and the “Selectivity Ratio α1B/α1A” value is listed as 2.21. The Ki in data set [3] stood at 26 nM. In addition, in data set [4], the “α1B-AR Profile” value is “Antagonist”, 359 nM corresponded to half-maximal inhibition (IC50) and the “Selectivity Ratio α1A/α1B” value came out at 0.45.

For the molecule `Cc1ccc(N2CCN(CC(O)CN3C(=O)N(Cc4ccc(Cl)cc4Cl)C(=O)C3(C)C)CC2)cc1C.Cl` (centres unmarked) [Compound 12, 3-(2,4-dichlorobenzyl)-1-(3-(4-(3,4-dimethylphenyl)piperazin-1-yl)-2-hydroxypropyl)-5,5-dimethylimidazolidine-2,4-dione hydrochloride], the melting point fell in the range of 217 to 219 °C. In data set [1] (setting [6]), this molecule had a Diastolic blood pressure of 104.2 and a Systolic blood pressure of 139.0. For the same molecule, in data set [1] (5 min), the Diastolic blood pressure is on record as 98.2 and the Systolic blood pressure came out at 134.7. In data set [1] (10 min), this molecule yielded a Diastolic blood pressure of 99.5 and a Systolic blood pressure of 134.5. In data set [1] (20 min), this molecule displayed a Diastolic blood pressure of 97.8 and a Systolic blood pressure of 132.0. For the same molecule, in data set [1] (30 min), the Diastolic blood pressure is 96.7 and the Systolic blood pressure came to 131.0. In data set [1] (40 min), this molecule returned a Diastolic blood pressure of 97.0 and a Systolic blood pressure of 129.0. Also, in data set [1] (50 min), the Diastolic blood pressure came to 96.8 and the Systolic blood pressure is on record as 130.0. The molecule further came in with a Diastolic blood pressure in data set [1] (60 min) of 97.3. Moreover, in data set [2], the “α1A-AR Profile” value was “Antagonist”, half-maximal inhibition (IC50) required 3140 nM and the “Selectivity Ratio α1B/α1A” value was found to be 0.12. Also, in data set [3], the Ki came out at 270 nM. In addition, in data set [4], the “α1B-AR Profile” value was “Antagonist”, the IC50 amounted to 377 nM and the “Selectivity Ratio α1A/α1B” value was 8.31.

Molecule `COc1ccccc1N1CCN(CC(O)CN2C(=O)N(Cc3ccc(Cl)cc3Cl)C(=O)C2(C)C)CC1.Cl` (centres unmarked) [Compound 13, 3-(2,4-dichlorobenzyl)-1-(2-hydroxy-3-(4-(2-methoxyphenyl)piperazin-1-yl)propyl)-5,5-dimethylimidazolidine-2,4-dione hydrochloride] registered a melting point of 144 to 146 °C. In data set [1] (setting [6]), this molecule had a Diastolic blood pressure of 98.0 and a Systolic blood pressure of 130.7. In data set [1] (5 min), the Diastolic blood pressure is listed as 61.2 and the Systolic blood pressure stood at 102.8. In data set [1] (10 min), the Diastolic blood pressure worked out at 70.8 and the Systolic blood pressure is 107.7. For the same molecule, in data set [1] (20 min), the Diastolic blood pressure turned out to be 77.3 and the Systolic blood pressure amounted to 109.3. Further, in data set [1] (30 min), the Diastolic blood pressure is 82.2 and the Systolic blood pressure is reported as 112.7. In data set [1] (40 min), this molecule displayed a Diastolic blood pressure of 82.8 and a Systolic blood pressure of 113.3. In data set [1] (50 min), the Diastolic blood pressure is reported as 82.2 and the Systolic blood pressure turned out to be 117.2. For the same molecule, in data set [1] (60 min), the Diastolic blood pressure was 83.7 and the Systolic blood pressure is listed as 118.0. Also, the “effect on systolic and diastolic blood pressure (in words)” value in data set [1] is “statistically significant reduction”. Besides, in data set [2], the “α1A-AR Profile” value is given as “Antagonist”, the IC50 amounted to 139 nM, the “selectivity for α1A-AR over α1B-AR” value is listed as ~ 2 fold and the “Selectivity Ratio α1B/α1A” value stood at 2.39. In data set [3], the Ki was 29 nM. In data set [4], the “α1B-AR Profile” value is “Antagonist”, the IC50 came to 331 nM and the “Selectivity Ratio α1A/α1B” value turned out to be 0.42.

In turn, `COc1cccc(N2CCN(CC(O)CN3C(=O)N(Cc4ccc(Cl)cc4Cl)C(=O)C3(C)C)CC2)c1.Cl` (centres unmarked) [Compound 14, 3-(2,4-dichlorobenzyl)-1-(2-hydroxy-3-(4-(3-methoxyphenyl)piperazin-1-yl)propyl)-5,5-dimethylimidazolidine-2,4-dione hydrochloride] had a melting point of 177 to 179 °C. In data set [1] (setting [6]), this molecule gave a Diastolic blood pressure of 100.8 and a Systolic blood pressure of 132.5. For the same molecule, in data set [1] (5 min), the Diastolic blood pressure was determined as 100.3 and the Systolic blood pressure amounted to 132.3. Further, in data set [1] (10 min), the Diastolic blood pressure is recorded as 100.7 and the Systolic blood pressure turned out to be 132.0. For the same molecule, in data set [1] (20 min), the Diastolic blood pressure is recorded as 96.0 and the Systolic blood pressure stood at 129.3. In data set [1] (30 min), this molecule had a Diastolic blood pressure of 96.0 and a Systolic blood pressure of 127.7. In data set [1] (40 min), this molecule returned a Diastolic blood pressure of 97.3 and a Systolic blood pressure of 125.8. For the same molecule, in data set [1] (50 min), the Diastolic blood pressure came to 94.3 and the Systolic blood pressure is reported as 124.5. Moreover, in data set [1] (60 min), the Diastolic blood pressure is recorded as 92.0 and the Systolic blood pressure is reported as 124.3. In data set [2], the “α1A-AR Profile” value is “Antagonist”, inhibition was half-maximal at 1220 nM (IC50) and the “Selectivity Ratio α1B/α1A” value is reported as 1.12. Besides, the Ki in data set [3] amounted to 289 nM. In addition, in data set [4], the “α1B-AR Profile” value is listed as “Antagonist”; the midpoint of inhibition, the IC50, lay at 1370 nM; the “Selectivity Ratio α1A/α1B” value came out at 0.89.

Consider `COc1ccccc1N1CCN(CCCCCN2C(=O)N(Cc3ccccc3)C(=O)C2(C)C)CC1` [PI], for which the Ki in data set [5] (lead structure, Figure 2, read-out: α1R Ki) was 42.6 nM.

Regarding `COc1cc2nc(N3CCN(C(=O)c4ccco4)CC3)nc(N)c2cc1OC` [Prazosin, prazosin hydrochloride], the Ki in data set [5] (published previously, read-out: α1-adrenoceptor affinity Ki) was 0.24 nM.

(Values after PMC10706087, “The Subtype Selectivity in Search of Potent Hypotensive Agents among 5,5-Dimethylhydantoin Derived α1-Adrenoceptors Antagonists” (International Journal of Molecular Sciences, 2023).)
